From publication doi:10.1101/2021.08.31.458471v1 (biorxiv, 2021)

What was measured:
[1] = biological target: McpA signaling domain (McpAc) (Bacillus subtilis, UniProt P39214); test: biochemical
[2] = biological target: McpB signaling domain (Bacillus subtilis, UniProt P39215); settings: 20 µM protein, 2 mM benzene, PBS in D2O pH 7.4, 298 K
McpB signaling domain, sequence (P39215 359-662): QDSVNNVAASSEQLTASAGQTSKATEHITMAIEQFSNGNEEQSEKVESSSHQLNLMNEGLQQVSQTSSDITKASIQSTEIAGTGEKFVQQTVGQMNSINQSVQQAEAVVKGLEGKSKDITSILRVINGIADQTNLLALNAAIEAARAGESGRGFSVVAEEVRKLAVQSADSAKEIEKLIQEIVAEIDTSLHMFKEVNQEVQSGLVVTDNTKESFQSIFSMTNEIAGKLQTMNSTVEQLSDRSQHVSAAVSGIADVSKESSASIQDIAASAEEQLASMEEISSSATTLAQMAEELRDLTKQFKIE

McpA signaling domain (McpAc), sequence (P39214 359-661): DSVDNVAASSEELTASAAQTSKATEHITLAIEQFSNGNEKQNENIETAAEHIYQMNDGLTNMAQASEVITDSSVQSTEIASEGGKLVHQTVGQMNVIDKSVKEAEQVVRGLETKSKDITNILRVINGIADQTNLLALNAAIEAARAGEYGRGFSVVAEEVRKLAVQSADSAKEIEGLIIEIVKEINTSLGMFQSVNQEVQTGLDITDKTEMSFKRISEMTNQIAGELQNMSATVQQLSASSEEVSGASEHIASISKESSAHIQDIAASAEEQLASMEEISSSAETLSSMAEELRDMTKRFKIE

Work on `Oc1ccccc1` [phenol] yielded a Kd [1] of 4.8 mM.
`c1ccccc1` [benzene] gave an STD-AF [2] of 16.4%.
